Measured values taken from patent publication US10568930B2, “Agents and methods of treatment” (Hexima Limited, priority 2014, dated 2020).

Key:
Format in all cases: cell-based
Details in all cases: for Expected inhibition: Ee, Limpel formula; for Synergy: Io-Ee
[1] = system: Candida albicans; test: Antifungal growth assay, defensin plus proteinase inhibitor; design: key to Synergy: Io-Ee in % inhibition points; >60 high synergy, <15 none
Protocol: (§1) Spores are isolated from sporulating fungus spp. growing on yeast extract peptone dextrose agar (Candida albicans, Cryptococcus gattii—1.5×10^6) or ½ strength Sabouraud dextrose agar (Trichophyton interdigitale, Microsporum fulvum—5×10^4). Spores are removed from the plates by the addition of ½ strength potato dextrose broth (PDB). Spore concentrations are measured using a haemocytometer.
(§2) Antifungal assays were conducted in 96 well microtitre plates. Wells were loaded with 10 μL of filter sterilized (0.22 μm syringe filter, Millipore) defensin (10× stock for each final concentration) or water, 10 μL, of filter sterilized (0.22 μm syringe filter, Millipore) proteinase inhibitor or chemical fungicide (10× stock for each final concentration) or water and 80 μL of 5×10^3 spores/mL in ½ strength PDB. The plates were incubated at 24° C. Fungal growth was assayed by measuring optical density at 595 nm (A595) using a microtitre plate reader (SpectraMax Pro M2; Molecular Devices. Growth was allowed to proceed until the optical density (OD) of the fungus in the absence of any test defensin reached an OD of 0.2. Each test was performed in duplicate.
(§3) Synergy is classified as the difference between the observed % fungal growth inhibition caused by the combination of a defensin and a proteinase inhibitor (or a defensin and a chemical fungicide) (Io value) and the expected % fungal growth inhibition of the defensin and the proteinase inhibitor (or the defensin and the chemical fungicide) based on the sum of the % fungal growth inhibition of the defensin and the proteinase inhibitor (or the defensin and the chemical fungicide) on their own (Ee value calculated according to the Limpel formula used by Richer et al. (1987) supra). The difference, Io-Ee, is the synergy value. A synergy value up to 15 means no significant synergy; 15-30 is a low level of synergy; 30-60 is a medium level of synergy; and >60 is a high level of synergy. Synergy calculations are presented in Tables 2 through 7 wherein, as indicated above, Ee is the expected effect from the additive response according to Limpel's formula expressed as percent inhibition and To is the percent inhibition observed. Synergy occurs when To values are higher than Ee values.

[2] = system: Cryptococcus gattii; test: as above
Protocol: as §1, §2, §3

[3] = system: Trichophyton interdigitale; test: as above
Protocol: as §1, §2, §3

[4] = system: Candida albicans; test: Antifungal growth assay, defensin plus chemical fungicide; design: key to Synergy: Io-Ee in % inhibition points; <15 none, 15-30 low, 30-60 medium, >60 high
Protocol: Chemical fungicides were sourced commercially and were prepared as 10× stock solutions in H2O (caspofungin and fenpropimorph) or as a 100× stock in methanol (terbinafine).
as §1, §2, §3

[5] = defensin 2 μM + BPTI (0.625 μM)
[6] = defensin 2 μM + HyCPI6 (2.5 μM)
[7] = defensin 2 μM + SlCys9N (2.5 μM)
[8] = defensin 0.5 μM + BPTI (0.625 μM)
[9] = defensin 0.5 μM + HvCPI6 (2.5 μM)
[10] = defensin 0.5 μM + SlCys9N (2.5 μM)
[11] = defensin 1.5 μM + Caspofungin (2 ng/ml)
[12] = defensin 1.5 μM + Fenpropimorph (2 ug/ml)
[13] = defensin 1.5 μM + Terbinafine (4 ng/ml)

Substance: HXP4: artificial (synthetic) defensin variant, SEQ ID NO:8; permeabilizing (RECKTESHRFKGPCITKPPCRKACISEKFTDGHCSKILRRCLCTKPC; HXP4 protein)
- Observed inhibition [1, 5]: 100%
- Expected inhibition [1, 5]: 16.2%
- Synergy [1, 5]: 83.8
- Observed inhibition [1, 6]: 93.5%
- Expected inhibition [1, 6]: 15.9%
- Synergy [1, 6]: 77.6
- Observed inhibition [1, 7]: 92.4%
- Expected inhibition [1, 7]: 33%
- Synergy [1, 7]: 59.4
- Observed inhibition [2, 8]: 97.4%
- Expected inhibition [2, 8]: 48.8%
- Synergy [2, 8]: 48.6
- Observed inhibition [2, 9]: 97.4%
- Expected inhibition [2, 9]: 18.6%
- Synergy [2, 9]: 78.8
- Observed inhibition [2, 10]: 99.3%
- Expected inhibition [2, 10]: 0.0%
- Synergy [2, 10]: 99.3
- Observed inhibition [3, 8]: 69.0%
- Expected inhibition [3, 8]: 32.9%
- Synergy [3, 8]: 36.1
- Observed inhibition [3, 9]: 56.8%
- Expected inhibition [3, 9]: 31.1%
- Synergy [3, 9]: 25.7
- Observed inhibition [3, 10]: 53.0%
- Expected inhibition [3, 10]: 9.7%
- Synergy [3, 10]: 43.4
- Observed inhibition [4, 11]: 64.5%
- Expected inhibition [4, 11]: 14.5%
- Synergy [4, 11]: 50.0
- Observed inhibition [4, 12]: 97.6%
- Expected inhibition [4, 12]: 15%
- Synergy [4, 12]: 82.6
- Observed inhibition [4, 13]: 82.7%
- Expected inhibition [4, 13]: 44.8%
- Synergy [4, 13]: 37.9
